From US20050244810A1, “Taste signaling in gastrointestinal cells” (priority 2003, published 2005)

System: G proteins on NCI-H716 cells
Assay: Radiometric [35S]GTPγS binding assay with NCI-H716 cell membranes
Format: biochemical, human
Conditions: for GTPγS binding to G proteins as compared to non-specific binding (NSB): NCI-H716 cell membrane fractions, 10 μl 50 mM compound in 50 μl assay, 2 hours at 25° C.; for effect of added transducin on the level of GTPγS binding to G proteins: transducin 4 μg/50 μl assay added together with compound (FIG. 4C, 5C)
Procedure: [^35S] GTPγS binding assays were performed in triplicate in 96-well plates [see Northup et al., J. Biol. Chem., 257, 11416-23 (1982)]. To each well the following was added and allowed to incubate for 2 hours at 25° C.: […] of a 2× buffer (5 mM HEPES pH 7.8, 1 μM GTPγS, 4 μCi/ml [^35S]GTPγS); 10 μl 50 mM dextromethorphan or doxylamine; and 15 μl ([…]) NCI-H7-16 cell membranes or supernatant (supernatant from NCI-H716 cells spun at 900 g (S1), pellets from NCI-H716 cells spun at 900 g (P1), and pellets from NCI-H716 cells spun at 100,000 g (P2)). Where indicated, transducin was also added (4 μg/50 μl assay). The total assay volume per well was 50 μl.
To separate the free [^35S] GTPγS from the [^35S] GTPγS that bound to G proteins, 40 μl of the mixture was filtered using a pre-wet Millipore Multiscreen Filtration opaque 96-well plate (0.45 μm mixed cellulose acetate, #MHABN4550). The samples were washed three times with 0.2 ml ice-cold wash buffer (0.5 M Tris-HCl, 0.04 M-magnesium chloride 6H20, 1 M sodium chloride) using a Whatman Polyfiltronics manifold under pressure from a Gast vacuum pump (#DOA-P104 AA) set to 10 PSI. The rubber manifold of the Multiscreen plates was removed and the filters were allowed to dry under warm lights and a fan for 15 minutes.
The plates were then fitted with adapter plates (Packard #6005178) and 30 μl Microscint PS (#6013631) was added to each well. Next, the plates were heat sealed with Packard TopSeal-S sealing film (#6005161) using a Packard Micromate 496 heat sealer. Radioactivity bound to the filter plates was counted in a Packard Top Count NXT scintillation counter.

| SMILES | amount of compound needed to saturate NCI-H716 cell membranes in GTPγS binding (2 μg of NCI-H716 cell membranes (FIG. 6B)) [mM] | GTPγS binding to G proteins in the absence of transducin (NCI-H716 cell fractions, no transducin added (FIG. 4A)) | GTPγS binding to G proteins as compared to non-specific binding (NSB) | effect of added transducin on the level of GTPγS binding to G proteins |
| --- | --- | --- | --- | --- |
| COc1ccc2c(c1)[C@]13CCCC[C@@H]1[C@H](C2)N(C)CC3 [dextromethorphan] | 10 | increased the binding to G proteins | increase this binding | little effect |
| CN(C)CCOC(C)(c1ccccc1)c1ccccn1 (stereo not drawn) [doxylamine] | – | – | increase this binding | significantly increased the binding to G proteins |
